{"source": "patent US20030216471A1", "about": "“Retinoid formulations for aerosolization and inhalation” (priority 2003, published 2003)", "key": {"RAR α": {"test_system": "RAR α", "experiment": "RAR induction in lungs of A/J mice exposed to isotretinoin aerosol, RAR α", "assay_type": "in vivo, mouse", "conditions": "inhaled mid dose, urethane-treated A/J mice", "procedure": "(§2) Antibodies: Polyclonal antibodies to RARα, β and γ (Santa Cruz Biotechnology Inc., San Francisco, Calif.) were used with a BM Chemiluminescence Western Blotting Kit (Mouse/Rabbit) (Boehringer Mannheim Corporation, Indianapolis).\n(§3) Experimental Design: Five lungs each from the urethane-treated vehicle, low dose, and mid dose animals were snap frozen in liquid nitrogen and stored at −70° C. for determination of RARs α, β and γ by Western Blot Analysis. […] The lungs were homogenized and the RARs were determined by standard Western Blotting (21, 22).\n(§4) Samples: Lung tissue was collected, frozen on dry ice and kept at −70° C. until used. A 500 mg portion was diced in small pieces and homogenized in 300 μl of cold PBS using a hand held homogenizer for 2-3 min. Samples were centrifuged at 500 rpm for 5 min or until the supernatant was clear. The pellet was suspended in 400 μl of cold Buffer A [2 μl 0.5 M EDTA, 10 μl mM EGTA, 50 μl 100 mM PMSF, 10 μl 1M DTT, 10 ml (10 mM HEPES pH 7.9+10 mM KCl)], and left at ice temperature for 15 min. A 25 μl volume of 10% solution of NP−40 was added and the samples were mixed in a vortex vigorously for 10 sec. Samples were centrifuged at 14,000 rpm for 1 min at 4° C. and the pellet was treated once more in this fashion. […]"}, "TGase II [1]": {"test_system": "TGase II", "experiment": "TGase II assay of rat liver tissue after inhaled 13-cis RA (experiment B)", "assay_type": "in vivo", "conditions": "for TGase II assay, rat liver: 14 days", "method": "The experimental groups were as follows (Table 1): 1. Vehicle control: rats (3) inhaled vehicle for 240 minutes; 2.\nFor liver tissue, a piece of approximately 100-400 mg was used. Tissue was diced in small pieces and homogenized in approximately 2 volumes of scraping buffer for 2-3 minutes at 4° C. Samples were centrifuged at 14,000 xg for 30 minutes at 4° C. The supernatant was removed and kept in ice until used.\n(§1) Enzyme assay mixtures were prepared by adding 80 μl of SUBSTRATE mixture (322.8 μl H2O, 120 μl 0.5M NaBorate, 60 μl 0.01M EDTA, 60 μl 0.1M CaCl2, 6 μl 1M DTT, 240 μl dimethyl casein, 30 μl Triton X-100, 1.21 μl [^3H]-Putrescine, 120 μl Putrescine) to 20 μl sample, 20 μl scraping buffer for blank control, 20 μl (18 μl scraping buffer+2 μl TGase II) for positive control. Samples were mixed in 15 ml tubes, the tubes were shaken before putting them into a 28° C. water bath for 30 minutes. Reactions were slowed down in an ice bath. 80 μl of the incubation mixture was adsorbed onto paper disks. These were immediately dropped into cold 10% TCA (0.1% Putrescine) and washed with agitation for 7 minutes, followed by 2 additional washes with 5% TCA (0.05% putrescine) for 5-7 minutes, and once more with cold (−20° C.) 95% ethanol for 5 minutes. Paper disks were dried and placed into 5 ml Aquasol, and counted in a Liquid Scintillation Counter. Protein concentration determination was conducted by the Bradford method."}, "TGase II [2]": {"test_system": "TGase II", "experiment": "TGase II assay of rat lung tissue after inhaled 13-cis RA (experiment B)", "assay_type": "in vivo", "method": "Male rats (n=23) (Sprague-Dawley from Charles River) were divided into six experimental groups and were given varying amounts of 13-cis RA through an inhalant apparatus once daily for different times each day for 14 days. The experimental groups were as follows (Table 1): 1. Vehicle control: rats (3) inhaled vehicle for 240 minutes; 2. Low dose 13-cis RA: rats (4) inhaled a solution containing 13-cis RA at a concentration of 62.2 μg/liter (inhaled dose 115.0 μg/kg body weight) in 5 minutes; 3. Low-Middle dose 13-cis RA: rats (4) inhaled a solution containing 13-cis RA at a concentration of 62.2 μg/liter (inhaled dose 334.4 μg/kg body weight) in 15 minutes; 4.Middle dose 13-cis RA: rats (4) inhaled a solution containing 13-cis RA at a concentration of 62.2 μg/liter (inhaled dose 1012.3 μg/kg body weight) in 45 minutes; 5. Middle-High dose 13-cis RA: rats (4) inhaled a solution containing 13-cis RA at a concentration of 62.2 μg/liter (inhaled dose 2843.4 μg/kg body weight) in 120 minutes; 6. High dose 13-cis RA:rats (4) inhaled a solution containing 13-cis RA at a concentration of 62.2 μg/liter (inhaled dose 5935.6 μg/kg body weight) in 240 minutes.\nas §1\nCannon (Cannon et al., 1983)."}, "RAR β": {"test_system": "RAR β", "experiment": "RAR induction in lungs of A/J mice exposed to isotretinoin aerosol, RAR β", "assay_type": "in vivo, mouse", "conditions": "inhaled mid dose, urethane-treated A/J mice", "procedure": "as §2, §3, §4"}, "albumin": {"target": "albumin (Homo sapiens, UniProt P02768)", "sequence (P02768 25-609, species assumed)": "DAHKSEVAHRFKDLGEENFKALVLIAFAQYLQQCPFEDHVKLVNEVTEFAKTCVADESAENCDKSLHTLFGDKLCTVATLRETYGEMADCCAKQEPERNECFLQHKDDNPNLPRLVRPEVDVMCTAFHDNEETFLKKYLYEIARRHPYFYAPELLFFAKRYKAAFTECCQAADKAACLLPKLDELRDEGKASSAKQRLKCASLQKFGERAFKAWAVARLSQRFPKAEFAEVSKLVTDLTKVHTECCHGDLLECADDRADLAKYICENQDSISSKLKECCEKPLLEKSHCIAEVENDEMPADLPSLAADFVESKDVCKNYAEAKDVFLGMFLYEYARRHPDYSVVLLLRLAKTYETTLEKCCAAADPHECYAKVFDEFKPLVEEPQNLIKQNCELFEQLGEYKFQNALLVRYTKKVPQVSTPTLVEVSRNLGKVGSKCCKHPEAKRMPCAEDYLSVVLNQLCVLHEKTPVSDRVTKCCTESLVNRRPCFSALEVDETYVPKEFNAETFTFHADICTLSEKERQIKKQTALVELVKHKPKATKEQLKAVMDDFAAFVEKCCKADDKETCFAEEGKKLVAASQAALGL", "conditions": "systemic administration, reported; cited from earlier work"}}, "note": "Where “and” joins values, the source holds several entries; their conditions need not be identical. Identical values can stand only once. Entries after “also recorded” stand apart in the source; their conditions may differ. Like-named read-outs stand apart in the source and are kept apart here. Marks after values point to notes of the source that are not given here."}
{"smiles": "CC1=C(/C=C/C(C)=C/C=C/C(C)=C\\C(=O)O)C(C)(C)CCC1", "note": "[13-cis RA, 13-cis-Retinoic Acid]", "values": [{"measurement": "upregulation of lung tissue RAR α over solvent (vehicle)", "setting": "RAR α", "result": 3.9, "unit": "fold"}, {"measurement": "TGase II assay, rat liver", "setting": "TGase II [1]; High dose", "result": 19719, "unit": "DPM/μg protein"}, {"measurement": "TGase II assay, rat liver", "setting": "TGase II [1]; High dose: 1872 μg/kg total deposited", "result": "0.271+/−0.015 picomoles/μg protein/30 min and 0.271 ± 0.015 picomoles/μg protein/30 min"}, {"measurement": "TGase II assay, rat liver", "setting": "TGase II [1]; Low dose, vehicle 20426", "result": 22705, "unit": "DPM/μg protein"}, {"measurement": "TGase II assay, rat liver", "setting": "TGase II [1]; Low dose: 39 μg/kg total deposited, vehicle 0.260", "result": "0.289+/−0.007 picomoles/μg protein/30 min and 0.289 ± 0.007 picomoles/μg protein/30 min"}, {"measurement": "TGase II assay, rat liver", "setting": "TGase II [1]; Low-Middle dose", "result": 21448, "unit": "DPM/μg protein"}, {"measurement": "TGase II assay, rat liver", "setting": "TGase II [1]; Low-Middle dose: 117 μg/kg total deposited", "result": "0.273+/−0.018 picomoles/μg protein/30 min and 0.273 ± 0.018 picomoles/μg protein/30 min"}, {"measurement": "TGase II assay, rat liver", "setting": "TGase II [1]; Middle dose", "result": 24590, "unit": "DPM/μg protein"}, {"measurement": "TGase II assay, rat liver", "setting": "TGase II [1]; Middle dose: 351 μg/kg total deposited", "result": "0.313+/−0.025 picomoles/μg protein/30 min and 0.313 ± 0.025 picomoles/μg protein/30 min"}, {"measurement": "TGase II assay, rat liver", "setting": "TGase II [1]; Middle-High dose", "result": 20348, "unit": "DPM/μg protein"}, {"measurement": "TGase II assay, rat liver", "setting": "TGase II [1]; Middle-High dose: 936 μg/kg total deposited", "result": "0.269+/−0.015 picomoles/μg protein/30 min and 0.269 ± 0.015 picomoles/μg protein/30 min"}, {"measurement": "effect of inhaled 13-cis RA on liver TGase II activity", "setting": "TGase II [1]; rat, up to 5.93 mg/kg of inhaled dose", "result": "without significant effect; also recorded: fails to significantly alter; also recorded: no significant effect"}, {"measurement": "Body Weights (Mean ± SD) (N)", "setting": "BaP-Treated Mice, Day 102, High Dose", "result": "19.3 ± 1.6 (12)^a,e gms"}, {"measurement": "Body Weights (Mean ± SD) (N)", "setting": "BaP-Treated Mice, Day 102, Low Dose, vehicle control 22.5", "result": "21.8 ± 1.2 (21) gms"}, {"measurement": "Body Weights (Mean ± SD) (N)", "setting": "BaP-Treated Mice, Day 102, Mid Dose", "result": "20.1 ± 1.8 (20)^a,b gms"}, {"measurement": "Body Weights (Mean ± SD) (N)", "setting": "NNK-Treated Mice, Day 102, High Dose", "result": "17.5 ± 1.2 (14)^a,d gms"}, {"measurement": "Body Weights (Mean ± SD) (N)", "setting": "NNK-Treated Mice, Day 102, Low Dose, vehicle control 22.7", "result": "22.1 ± 1.5 (21) gms"}, {"measurement": "Body Weights (Mean ± SD) (N)", "setting": "NNK-Treated Mice, Day 102, Mid Dose", "result": "20.3 ± 1.2 (20)^a,b gms"}, {"measurement": "Body Weights (Mean ± SD) (N)", "setting": "Urethane-Treated Mice, Day 60, High Dose", "result": "18.9 ± 1.7 (12)^a,c gms"}, {"measurement": "Body Weights (Mean ± SD) (N)", "setting": "Urethane-Treated Mice, Day 60, Low Dose, vehicle control 20.8", "result": "21.0 ± 1.2 (21) gms"}, {"measurement": "Body Weights (Mean ± SD) (N)", "setting": "Urethane-Treated Mice, Day 60, Mid Dose", "result": "20.7 ± 1.5 (21) gms"}, {"measurement": "toxicity", "setting": "high dose, daily exposures during first two weeks, listed as isotretinoin", "result": "excessive toxicity to the snout and forelimbs; also recorded: severe toxicity"}, {"measurement": "mice that died", "setting": "high dose, daily exposures for the first two weeks", "result": "~35", "unit": "%"}, {"measurement": "side effects", "setting": "low dose", "result": "without any evidence of side effects"}, {"measurement": "mice that died before the end of exposure", "setting": "mid dose", "result": 3, "unit": "%"}, {"measurement": "time until which dose was tolerated (mice then began losing weight)", "setting": "mid dose", "result": "~12", "unit": "wks"}, {"measurement": "weights below those of vehicle controls at the end of exposure", "setting": "mid dose, NNK- and BaP-treated mice", "result": 11, "unit": "%"}, {"measurement": "TGase II assay, rat lung", "setting": "TGase II [2]; High dose, 240 min daily, 14 days", "result": 8053, "unit": "DPM/μg protein"}, {"measurement": "TGase II assay, rat lung", "setting": "TGase II [2]; High dose: 1872 μg/kg total deposited, 240 min daily, 14 days", "result": "0.1025+/−0.004 picomoles/μg protein/30 min and 0.1025 ± 0.004 picomoles/μg protein/30 min"}, {"measurement": "TGase II assay, rat lung", "setting": "TGase II [2]; Low dose, 5 min daily, 14 days, vehicle 3535", "result": 7503, "unit": "DPM/μg protein"}, {"measurement": "TGase II assay, rat lung", "setting": "TGase II [2]; Low dose: 39 μg/kg total deposited, 5 min daily, 14 days, vehicle 0.0450", "result": "0.0955+/−0.004 picomoles/μg protein/30 min and 0.0955 ± 0.004 picomoles/μg protein/30 min"}, {"measurement": "TGase II assay, rat lung", "setting": "TGase II [2]; Low-Middle dose, 15 min daily, 14 days", "result": 9035, "unit": "DPM/μg protein"}, {"measurement": "TGase II assay, rat lung", "setting": "TGase II [2]; Low-Middle dose: 117 μg/kg total deposited, 15 min daily, 14 days", "result": "0.1150+/−0.006 picomoles/μg protein/30 min and 0.1150 ± 0.006 picomoles/μg protein/30 min"}, {"measurement": "TGase II assay, rat lung", "setting": "TGase II [2]; Middle dose, 45 min daily, 14 days", "result": 10449, "unit": "DPM/μg protein"}, {"measurement": "TGase II assay, rat lung", "setting": "TGase II [2]; Middle dose: 351 μg/kg total deposited, 45 min daily, 14 days", "result": "0.1330+/−0.009 picomoles/μg protein/30 min and 0.1330 ± 0.009 picomoles/μg protein/30 min"}, {"measurement": "TGase II assay, rat lung", "setting": "TGase II [2]; Middle-High dose, 120 min daily, 14 days", "result": 8014, "unit": "DPM/μg protein"}, {"measurement": "TGase II assay, rat lung", "setting": "TGase II [2]; Middle-High dose: 936 μg/kg total deposited, 120 min daily, 14 days", "result": "0.1020+/−0.005 picomoles/μg protein/30 min and 0.1020 ± 0.005 picomoles/μg protein/30 min"}, {"measurement": "stimulation of lung TGase activity", "setting": "TGase II [2]; maximum, inhaled dose 1012.3 μg/kg (45 minutes of inhalation), 14 days", "result": 2.9, "unit": "Fold"}, {"measurement": "stimulation of lung TGase activity", "setting": "TGase II [2]; with larger amounts of inhaled retinoid", "result": 1.2, "unit": "fold"}, {"measurement": "upregulation of lung tissue RAR β over solvent (vehicle)", "setting": "RAR β", "result": 3.3, "unit": "fold"}, {"measurement": "present as albumin bound", "setting": "albumin", "result": 99, "unit": "%"}]}
